# Assay results from the supplement of paper PMC6045584.
# ± gives the standard deviation of the averaged measurements.
# What was measured:
# CARBOPLATIN [1] = compound: T1, O=C(O)C1(C(=O)O)CCC1.[NH2-].[NH2-].[Pt+2] [CARBOPLATIN]; assay: area under dose-response curve of surviving fraction (unscaled, Aref=0) (surviving fraction x log10(nM)); higher = more resistant; conditions: exposure time: 5 days; dose range 0.5-1000 nM
# Summary of the method: (§1)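 Inhibitor was applied to tumour cell lines at eight concentrations (0.5 to 1000 nM) for five days in 384-well plates. Luminescence from CellTiter-Glo, scaled to DMSO-only wells, gave surviving fractions in three screens per line, and these were fitted by 3-parameter logistic regression with the drc R package. The area under the curve is an unscaled activity area. Aref was 0, and dose was on a log10 scale.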
# PACLITAXEL [2] = compound: T2, CC(=O)O[C@H]1C(=O)[C@@]2(C)[C@H]([C@H](OC(=O)c3ccccc3)[C@]3(O)C[C@H](OC(=O)[C@H](O)[C@@H](NC(=O)c4ccccc4)c4ccccc4)C(C)=C1C3(C)C)[C@]1(OC(C)=O)CO[C@@H]1C[C@@H]2O [PACLITAXEL]; assay: as above; conditions: exposure time: 5 days; dose range 0.5-1000 nM
# Summary of the method: as §1
# [3] = compound: CC(=O)NCC(=O)N1[C@@H]2CC[C@H]1c1ccc(Nc3ncc(C(F)(F)F)c(NC4CCC4)n3)cc12; assay: as above; conditions: exposure time: 5 days; dose range 0.5-1000 nM
# Summary of the method: as §1
# CAMPTOTHECIN [4] = compound: T3, CC[C@@]1(O)C(=O)OCc2c1cc1n(c2=O)Cc2cc3ccccc3nc2-1 [CAMPTOTHECIN]; assay: as above; conditions: exposure time: 5 days; dose range 0.5-1000 nM
# Summary of the method: as §1
# YM155 = compound: COCC[n+]1c2c(n(Cc3cnccn3)c1C)C(=O)c1ccccc1C2=O [YM155]; assay: as above; conditions: exposure time: 5 days; dose range 0.5-1000 nM
# Summary of the method: as §1
# CELECOXIB = compound: Cc1ccc(-c2cc(C(F)(F)F)nn2-c2ccc(S(N)(=O)=O)cc2)cc1 [CELECOXIB]; assay: as above; conditions: exposure time: 5 days; dose range 0.5-1000 nM
# Summary of the method: as §1
# [5] = compound: CC(=O)c1c(C)c2cnc(Nc3ccc(N4CCNCC4)cn3)nc2n(C2CCCC2)c1=O; assay: as above; conditions: exposure time: 5 days; dose range 0.5-1000 nM
# Summary of the method: as §1
# OSI-906 = compound: C[C@]1(O)C[C@@H](c2nc(-c3ccc4ccc(-c5ccccc5)nc4c3)c3c(N)nccn32)C1 [OSI-906]; assay: as above; conditions: exposure time: 5 days; dose range 0.5-1000 nM
# Summary of the method: as §1
# CARBOPLATIN [6] = compound: T1, CARBOPLATIN; assay: surviving fraction relative to DMSO-only wells; higher = less growth inhibition; conditions: exposure time: 5 days
# Summary of the method: (§2)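 Log-phase tumour cells were seeded at 250–500 per well in 384-well plates and, from 24 hours after seeding, exposed continuously for five days to inhibitors at 0.5, 1, 5, 10, 50, 100, 500 and 1000 nM. Surviving fraction is CellTiter-Glo luminescence normalised to the median of DMSO-only wells. Luminescence was measured after 10 minutes at room temperature, and only lines screened three times with replicate Pearson r >0.7 and median Z' >0.3 were kept.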
# PACLITAXEL [7] = compound: T2, PACLITAXEL; assay: as above; conditions: exposure time: 5 days
# Summary of the method: as §2
# [8] = compound: CC(=O)NCC(=O)N1[C@@H]2CC[C@H]1c1ccc(Nc3ncc(C(F)(F)F)c(NC4CCC4)n3)cc12; assay: as above; conditions: exposure time: 5 days
# Summary of the method: as §2
# CAMPTOTHECIN [9] = compound: T3, CAMPTOTHECIN; assay: as above; conditions: exposure time: 5 days
# Summary of the method: as §2
test system,measurement,setting,value
SG31 HEADNECK,area under dose-response curve,CARBOPLATIN [1],3.73
same,area under dose-response curve,PACLITAXEL [2],1.44
same,area under dose-response curve,[3],2.85
same,area under dose-response curve,CAMPTOTHECIN [4],1.58
same,area under dose-response curve,YM155,1.96
same,area under dose-response curve,CELECOXIB,4.19
same,area under dose-response curve,[5],3.36
same,area under dose-response curve,OSI-906,2.94
same,surviving fraction,CARBOPLATIN [6]; 0.5 nM,1.15 ± 0.14
same,surviving fraction,CARBOPLATIN [6]; 1 nM,1.21 ± 0.11
same,surviving fraction,CARBOPLATIN [6]; 5 nM,0.963 ± 0.12
same,surviving fraction,CARBOPLATIN [6]; 10 nM,1.12 ± 0.24
same,surviving fraction,CARBOPLATIN [6]; 50 nM,1.16 ± 0.1
same,surviving fraction,CARBOPLATIN [6]; 100 nM,1.06 ± 0.19
same,surviving fraction,CARBOPLATIN [6]; 500 nM,1.17 ± 0.083
same,surviving fraction,CARBOPLATIN [6]; 1000 nM,1.21 ± 0.14
same,surviving fraction,PACLITAXEL [7]; 0.5 nM,0.976 ± 0.12
same,surviving fraction,PACLITAXEL [7]; 1 nM,0.887 ± 0.06
same,surviving fraction,PACLITAXEL [7]; 5 nM,0.455 ± 0.029
same,surviving fraction,PACLITAXEL [7]; 10 nM,0.381 ± 0.036
same,surviving fraction,PACLITAXEL [7]; 50 nM,0.271 ± 0.037
same,surviving fraction,PACLITAXEL [7]; 100 nM,0.252 ± 0.033
same,surviving fraction,PACLITAXEL [7]; 500 nM,0.267 ± 0.045
same,surviving fraction,PACLITAXEL [7]; 1000 nM,0.273 ± 0.028
same,surviving fraction,[8]; 0.5 nM,0.909 ± 0.13
same,surviving fraction,[8]; 1 nM,1.05 ± 0.18
same,surviving fraction,[8]; 5 nM,1.03 ± 0.26
same,surviving fraction,[8]; 10 nM,0.808 ± 0.041
same,surviving fraction,[8]; 50 nM,0.913 ± 0.052
same,surviving fraction,[8]; 100 nM,0.705 ± 0.069
same,surviving fraction,[8]; 500 nM,0.749 ± 0.076
same,surviving fraction,[8]; 1000 nM,0.717 ± 0.1
same,surviving fraction,CAMPTOTHECIN [9]; 0.5 nM,0.444 ± 0.03
same,surviving fraction,CAMPTOTHECIN [9]; 1 nM,0.911 ± 0.064
same,surviving fraction,CAMPTOTHECIN [9]; 5 nM,0.607 ± 0.074
same,surviving fraction,CAMPTOTHECIN [9]; 10 nM,0.715 ± 0.1
same,surviving fraction,CAMPTOTHECIN [9]; 50 nM,0.376 ± 0.021
same,surviving fraction,CAMPTOTHECIN [9]; 100 nM,0.37 ± 0.049
same,surviving fraction,CAMPTOTHECIN [9]; 500 nM,0.189 ± 0.017
same,surviving fraction,CAMPTOTHECIN [9]; 1000 nM,0.133 ± 0.018
